What all share (set-up): species or system SD rats
The target of one assay is T1, serotonin S2 receptor (Rattus norvegicus, UniProt P14842).
T1 construct: The receptor fraction prepared from the cortex was molten and suspended; from tissue; host or cells: cerebral cortex of SD rats (membrane fraction)
Nature of the assay: serotonin S2 receptor binding test ([3H] Ketanserin Binding Test). The conditions noted are these: 1 nM [3H] Ketanserin, rat cortex, 37° C., 15 minutes. The essentials: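 Ki values came from probit IC50s corrected for radioligand concentration and Kd (Scatchard). Binding used 1 nM [3H]ketanserin with SD rat cortex membrane fractions, 15 min at 37 °C in Tris-HCl pH 7.4. Bound radioactivity was measured after GF/B filtration, with methysergide for nonspecific binding.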

In a further assay the target is T2, dopamine D2 receptor (Rattus norvegicus, UniProt P61169).
T2 construct: the receptor fraction prepared from the corpus striatum was molten and suspended; from tissue; host or cells: corpus striatum of SD rats (membrane fraction)
Nature of the assay: dopamine D2 receptor binding test ([3H] Spiperone Binding Test). Conditions: 1 nM [3H] Spiperone, rat corpus striatum, room temperature, 60 minutes; read-out: Ki value, dopamine D2 receptor. The gist of the method:
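Rat (SD, 6–8 weeks) corpus striatum membranes in 50 mM Krebs-Tris pH 7.4 were incubated with 1 nM [3H]spiperone at room temperature for 60 minutes, with nonspecific binding defined by excess spiperone. IC50 came from probit analysis; Ki was derived using radioligand concentration and Scatchard Kd.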

Another assay concerns the target adrenergic α1 receptor. Nature of the assay: adrenergic α1 receptor binding test ([3H] Prazosin Binding Test). The conditions noted are these: 1 nM [3H] Prazosin, rat cortex, room temperature, 60 minutes. The gist of the method: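 Rat (SD, 6-8 weeks) cerebral cortex membranes in 50 mM Tris-HCl pH 7.4 incubated with 1 nM [3H]prazosin for 60 min at room temperature; nonspecific binding defined with phentolamine. IC50 by probit method, converted to Ki using radioligand concentration and Scatchard-derived Kd.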

T2 sequence (P61169 whole entry): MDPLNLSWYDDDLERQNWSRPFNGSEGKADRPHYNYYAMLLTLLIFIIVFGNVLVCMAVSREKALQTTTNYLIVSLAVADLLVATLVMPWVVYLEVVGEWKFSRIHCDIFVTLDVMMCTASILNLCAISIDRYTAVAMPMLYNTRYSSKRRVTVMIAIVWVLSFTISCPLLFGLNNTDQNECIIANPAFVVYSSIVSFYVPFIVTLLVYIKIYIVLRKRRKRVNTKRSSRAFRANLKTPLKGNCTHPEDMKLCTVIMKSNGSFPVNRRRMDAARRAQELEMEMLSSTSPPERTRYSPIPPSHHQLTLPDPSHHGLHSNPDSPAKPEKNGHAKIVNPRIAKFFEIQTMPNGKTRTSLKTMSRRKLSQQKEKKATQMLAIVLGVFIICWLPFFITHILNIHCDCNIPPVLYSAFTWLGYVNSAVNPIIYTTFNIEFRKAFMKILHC
T1 sequence (P14842 whole entry): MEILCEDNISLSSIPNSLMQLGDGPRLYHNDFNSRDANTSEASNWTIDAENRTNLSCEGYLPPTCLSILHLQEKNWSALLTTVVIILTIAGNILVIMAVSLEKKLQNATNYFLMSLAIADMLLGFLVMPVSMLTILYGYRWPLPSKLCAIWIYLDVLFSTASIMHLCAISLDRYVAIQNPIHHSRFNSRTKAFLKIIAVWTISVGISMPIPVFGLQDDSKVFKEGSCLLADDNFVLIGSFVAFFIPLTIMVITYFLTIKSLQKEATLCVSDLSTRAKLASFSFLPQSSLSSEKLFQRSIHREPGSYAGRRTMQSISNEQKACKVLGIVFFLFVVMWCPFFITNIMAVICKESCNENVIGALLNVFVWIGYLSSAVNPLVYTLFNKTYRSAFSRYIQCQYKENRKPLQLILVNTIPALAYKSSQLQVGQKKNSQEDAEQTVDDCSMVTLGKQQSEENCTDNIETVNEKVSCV

For the compound `CCN1CCN(c2cc(CCCOCOC)c(OC)c(-c3ccccc3)c2)CC1` [Example 69, 1-Ethyl-4-[3-phenyl-4-methoxy-5-(3-methoxymethoxypropyl)]phenylpiperazine], the Ki at serotonin S2 receptor was found to be 67.1 nM; on dopamine D2 receptor it was 171 nM; at adrenergic α1 receptor it was 321 nM.
The matching figures for `CCN1CCN(c2cc(-c3ccccc3)c(OC)c([S+](C)[O-])c2)CC1` (stereo not drawn) [Example 104, 1-Ethyl-4-(3-phenyl-4-methoxy-5-methanesulfinyl)phenylpiperazine]: 24.5 nM, 70.1 nM and above 1000 nM.
With `CCS(=O)(=O)c1cc(N2CCN(CCc3ccncc3)CC2)cc(-c2ccc(F)cc2)c1OC` [Example 201, 1-[2-(4-Pyridyl)ethyl]-4-[3-(4-fluorophenyl)-4-methoxy-5-ethanesulfonyl]phenylpiperazine], the Ki at serotonin S2 receptor stood at 3.17 nM; on dopamine D2 receptor it was 19.7 nM; at adrenergic α1 receptor, 12.9 nM.
The matching figures for `CCN1CCN(c2cc(CC(C)O)c(OC)c(-c3ccccc3)c2)CC1` (stereo not drawn) [Example 75, 1-Ethyl-4-[3-phenyl-4-methoxy-5-(2-hydroxypropyl)]phenylpiperazine]: 486 nM, above 1000 nM and above 1000 nM.
As for `CCCc1cc(N2CCN(CC)CC2)cc(-c2ccccc2)c1OC` [Example 59, 1-Ethyl-4-(3-phenyl-4-methoxy-5-propyl)phenylpiperazine], the values for the Ki at serotonin S2 receptor, on dopamine D2 receptor and on adrenergic α1 receptor were 36.7 nM, 47 nM and 301 nM, respectively.
The corresponding values for `CCN1CCN(c2cc(-c3ccccc3)c(OC)c(N(C)S(=O)(=O)CC)c2)CC1` [Example 122, 1-Ethyl-4-[3-phenyl-4-methoxy-5-(N-ethanesulfonyl-N-methylamino)]phenylpiperazine] are 123 nM, 45.9 nM and 68.1 nM.
Turning to `CCN1CCN(c2cc(NS(=O)(=O)CCCCl)c(Cl)c(-c3ccccc3C)c2)CC1` [Example 165], the Ki is 6.1 nM on serotonin S2 receptor, 0.74 nM at dopamine D2 receptor and above 1000 nM at adrenergic α1 receptor.
For the compound `CCN1CCN(c2cc(-c3ccccc3)c(OC)c(S(=O)(=O)CC)c2)CC1` [Example 133, 1-Ethyl-4-(3-phenyl-4-methoxy-5-ethanesulfonyl)phenylpiperazine], the results for the Ki on serotonin S2 receptor, on dopamine D2 receptor and on adrenergic α1 receptor were 9.02 nM, 28.7 nM and above 1000 nM, respectively.
In the case of `CCN1CCN(c2cc(-c3ccccc3)c(OC)c(C(O)c3ccccn3)c2)CC1` (stereo not drawn) [Example 112, 1-Ethyl-4-[3-phenyl-4-methoxy-5-(2-pyridyl)hydroxymethyl]phenylpiperazine], the values for the Ki at serotonin S2 receptor, at dopamine D2 receptor and on adrenergic α1 receptor were 7 nM, 972 nM and above 1000 nM, respectively.
As for `CCN1CCN(c2cc(C(=O)CC3CC3)c(OC)c(-c3ccccc3)c2)CC1` [Example 108, Ethyl-4-(3-phenyl-4-methoxy-5-cyclopropaneacetyl)phenylpiperazine], the inhibitory constant (Ki) at serotonin S2 receptor came out at 4 nM; on dopamine D2 receptor it was 162 nM; at adrenergic α1 receptor, 408 nM.
The matching figures for `CCN1CCN(c2cc(CCCO)cc(-c3ccccc3)c2OC)CC1` [Example 63, 1-Ethyl-4-[2-methoxy-3-phenyl-5-(3-hydroxypropyl)]phenylpiperazine]: 703 nM, above 1000 nM and above 1000 nM.
On to `CCC(F)c1cc(N2CCN(CC)CC2)cc(-c2ccccc2C#N)c1Cl` (stereo not drawn) [Example 21], for which the Ki at serotonin S2 receptor was determined as 14.4 nM; on dopamine D2 receptor, 1.85 nM; on adrenergic α1 receptor, 418 nM.
For the compound `CCN1CCN(c2cc(-c3ccccc3)c(OC)c(C(F)Cc3ccccc3)c2)CC1` (stereo not drawn) [Example 96, 1-Ethyl-4-[3-phenyl-4-methoxy-5-(1-fluorophenethyl)]phenylpiperazine], the Ki at serotonin S2 receptor is 35.3 nM; on dopamine D2 receptor, 1.33 nM; on adrenergic α1 receptor it was above 1000 nM.
The corresponding values for `CCCS(=O)(=O)Nc1cc(N2CCN(CC)CC2)cc(-c2ccccc2C#N)c1Cl` [Example 197, 1-Ethyl-4-[3-(2-cyanophenyl)-4-chloro-5-propanesulfonylamino]phenylpiperazine] are 8.86 nM, 1.4 nM and 31.4 nM.
The matching figures for `CCC(F)c1cc(N2CCN(C)CC2)cc(-c2ccccc2Cl)c1Cl` (stereo not drawn) [Example 22, 1-Methyl-4-[3-(2-chlorophenyl)-4-chloro-5-(1-fluoropropyl)]phenylpiperazine]: 19.2 nM, 2.84 nM and 809 nM.
Take `CCC(OCc1ccccn1)c1cc(N2CCN(CC)CC2)cc(-c2ccccc2)c1OC` (stereo not drawn) [Example 115, 1-Ethyl-4-{3-phenyl-4-methoxy-5-[1-(2-pyridylmethoxy)propyl]}phenylpiperazine]: the Ki on serotonin S2 receptor is 212 nM; on dopamine D2 receptor it was 81.4 nM; on adrenergic α1 receptor, above 1000 nM.
Turning to `CCN1CCN(c2cc(NS(=O)(=O)CC(F)(F)F)c(Cl)c(-c3ccccc3Cl)c2)CC1` [Example 163, 1-Ethyl-4-[3-(2-chlorophenyl)-4-chloro-5-(2,2,2-trifluoroethyl)sulfonylamino]phenylpiperazine], the values for the Ki at serotonin S2 receptor, at dopamine D2 receptor and at adrenergic α1 receptor were 63.6 nM, 10.2 nM and 195 nM, respectively.
The corresponding values for `CCN1CCN(c2ccc(O)c(-c3ccccc3)c2)CC1` [Example 62, 1-Ethyl-4-(3-phenyl-4-hydroxy)phenylpiperazine] are above 1000 nM, above 1000 nM and above 1000 nM.
The corresponding values for `CCC(C)c1cc(N2CCN(CC)CC2)cc(-c2ccccc2)c1Cl` (stereo not drawn) [Example 147, 1-Ethyl-4-[3-phenyl-4-chloro-5-(1-methylpropyl)]phenylpiperazine] are 15.1 nM, 0.45 nM and 33.2 nM.
The corresponding values for `CC(C)S(=O)(=O)Nc1cc(N2CCN(C)CC2)cc(-c2ccccc2Cl)c1Cl` [Example 182, 1-Methyl-4-(3-(2-chlorophenyl)-4-chloro-5-isopropylsulfonylamino]phenylpiperazine] are 145 nM, 2.34 nM and 186 nM.
Consider `CC[C@H](F)c1cc(N2CCN(C)CC2)cc(-c2ccccc2C)c1Cl` [Example 221, 1-Methyl-4-{3-(2-tolyl)-4-chloro-5-[1-(S)-fluoropropyl]}phenylpiperazine], for which the Ki at serotonin S2 receptor was found to be 4.53 nM; at dopamine D2 receptor, 3.45 nM; on adrenergic α1 receptor it was 486 nM.
The matching figures for `CN1CCN(c2cc(NS(C)(=O)=O)c(Cl)c(-c3ccccc3Cl)c2)CC1` [Example 188, 1-Methyl-4-[3-(2-chlorophenyl)-4-chloro-5-methanesulfonylamino]phenylpiperazine]: 47.8 nM, 1.33 nM and 19 nM.
The matching figures for `CCC(=O)c1cc(N2CCN(CC)CC2)cc(-c2ccccc2)c1OC` [Example 82, 1-Ethyl-4-(3-phenyl-4methoxy-5-propionyl)phenylpiperazine]: 10.7 nM, 39.1 nM and 723 nM.
The matching figures for `CCC(F)c1cc(N2CCN(C)CC2)cc(-c2ccccc2CO)c1Cl` (stereo not drawn) [Example 207]: 81.1 nM, 240 nM and above 1000 nM.

One may read the Ki as a measure of affinity in units of concentration, obtained from inhibition or displacement.

(Values after patent US6281214A, “Biphenyl derivatives” (Eisai Co., Ltd, priority 1994, dated 2001).)
